# “Also recorded” adds a separate entry of the source. Where two headings read alike, the source gives them in different places.
# Assays:
# [1] = biological target: T1, low-pH folate transporter (Homo sapiens, UniProt Q96NT5); settings: cited from earlier work
# T1 construct: host or cells: HeLa and other cells
# T1 sequence (Q96NT5 1-459): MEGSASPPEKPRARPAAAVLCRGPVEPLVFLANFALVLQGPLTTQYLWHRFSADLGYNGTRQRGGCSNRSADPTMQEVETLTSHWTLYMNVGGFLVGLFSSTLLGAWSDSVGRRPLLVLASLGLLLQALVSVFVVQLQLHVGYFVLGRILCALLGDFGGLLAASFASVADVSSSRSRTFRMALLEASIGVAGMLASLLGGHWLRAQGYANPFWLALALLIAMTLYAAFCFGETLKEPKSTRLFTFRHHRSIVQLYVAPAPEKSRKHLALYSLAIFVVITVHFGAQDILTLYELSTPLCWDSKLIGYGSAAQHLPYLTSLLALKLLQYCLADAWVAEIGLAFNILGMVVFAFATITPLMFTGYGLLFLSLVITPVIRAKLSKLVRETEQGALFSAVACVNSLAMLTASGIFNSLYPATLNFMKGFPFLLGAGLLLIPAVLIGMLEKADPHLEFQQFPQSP
# [2] = biological target: T2, G21 (PCFT) (Homo sapiens, UniProt Q96NT5); test: Inhibition of [3H]folic acid uptake into G21 cRNA-injected Xenopus oocytes; type: cell-based; settings: for inhibitory effect on uptake of 2 μM [3H]folic acid: 20 μM nonlabeled compound, pH 5.5, 30 min
# T2 construct: expressed in transfected cells; host or cells: Xenopus laevis oocytes injected with capped G21 cRNA (pSPT64, SP6)
# T2 sequence (Q96NT5 1-459): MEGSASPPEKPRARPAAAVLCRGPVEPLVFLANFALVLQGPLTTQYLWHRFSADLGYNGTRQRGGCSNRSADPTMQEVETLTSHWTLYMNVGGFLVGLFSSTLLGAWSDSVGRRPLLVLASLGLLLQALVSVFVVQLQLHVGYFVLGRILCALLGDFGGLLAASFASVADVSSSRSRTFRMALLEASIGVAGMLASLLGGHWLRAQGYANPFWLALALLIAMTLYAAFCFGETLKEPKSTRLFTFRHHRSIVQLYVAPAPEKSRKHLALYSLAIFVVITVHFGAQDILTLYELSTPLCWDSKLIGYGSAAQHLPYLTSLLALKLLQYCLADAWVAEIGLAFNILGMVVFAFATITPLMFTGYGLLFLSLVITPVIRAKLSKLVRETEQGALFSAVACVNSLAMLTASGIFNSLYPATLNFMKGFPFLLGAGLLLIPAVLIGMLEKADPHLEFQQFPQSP
# Method: Uptake studies in Xenopus oocytes. […] Radiotracer uptake was determined 3 or 4 days later. […] Uptake was halted by the addition of ice-cold MBS (pH 7.5). Oocytes were washed 10 times thereafter, and solubilized with 10% SDS for measurement of radioactivity. To collapse the pH gradient across the oocyte membrane, seven to 10 oocytes were incubated in MBS (pH 5.5) containing 0, 10, 20, 40, 60 μM FCCP for 20 min, and uptake of transport substrates assessed at pH 5.5.
# [3] = biological target: T3, reduced folate carrier (SLC19A1) (Homo sapiens, UniProt P41440); settings: cited from earlier work
# T3 sequence (P41440 1-591): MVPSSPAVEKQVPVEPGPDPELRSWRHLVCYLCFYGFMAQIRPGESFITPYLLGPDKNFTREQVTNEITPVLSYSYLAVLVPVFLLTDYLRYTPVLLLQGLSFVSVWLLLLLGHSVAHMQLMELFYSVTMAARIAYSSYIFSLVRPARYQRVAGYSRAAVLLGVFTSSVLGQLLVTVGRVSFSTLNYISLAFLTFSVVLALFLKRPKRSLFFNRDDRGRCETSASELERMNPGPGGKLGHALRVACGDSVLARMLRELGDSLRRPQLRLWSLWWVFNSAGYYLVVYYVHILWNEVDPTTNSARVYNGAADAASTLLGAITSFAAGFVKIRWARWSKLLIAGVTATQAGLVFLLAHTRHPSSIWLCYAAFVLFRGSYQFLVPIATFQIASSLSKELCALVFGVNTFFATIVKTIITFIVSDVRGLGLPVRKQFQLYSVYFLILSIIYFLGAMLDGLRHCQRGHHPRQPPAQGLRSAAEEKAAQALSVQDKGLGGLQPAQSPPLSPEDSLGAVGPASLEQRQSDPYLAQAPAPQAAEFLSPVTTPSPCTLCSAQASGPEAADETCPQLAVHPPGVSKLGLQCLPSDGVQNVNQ
# [4] = biological target: T2, G21 (PCFT); test: Uptake of tritiated folates in G21 cRNA-injected Xenopus oocytes; type: cell-based
# Method: (§1) Uptake studies in Xenopus oocytes. Defolliculated Xenopus laevis oocytes were prepared as described (Jansen and Akabas, 2006) and injected with 50 nl of water or G21 cRNA (30 ng). Radiotracer uptake was determined 3 or 4 days later. Seven to 10 oocytes were incubated in 500 μl of Modified Barth's Solution (MBS, in mM, 88 NaCl, 2.4 NaHCO3, 2.5 Na pyruvate, 1 KCl, 0.82 MgSO4, 0.41 CaCl2, 0.3 Ca(NO3)2, 15 MES or HEPES) and uptake of tritiated folate substrates assessed at room temperature. Uptake was halted by the addition of ice-cold MBS (pH 7.5). Oocytes were washed 10 times thereafter, and solubilized with 10% SDS for measurement of radioactivity. To collapse the pH gradient across the oocyte membrane, seven to 10 oocytes were incubated in MBS (pH 5.5) containing 0, 10, 20, 40, 60 μM FCCP for 20 min, and uptake of transport substrates assessed at pH 5.5.
# [5] = system: rat jejunum brush border membranes; settings: read-out: uptake Km, cited from earlier work
# [6] = biological target: T2, G21 (PCFT); test: Two-electrode voltage-clamp electrophysiology in G21 cRNA-injected Xenopus oocytes; type: cell-based
# Method: (§2) Electrophysiological analyses in Xenopus oocytes. Defolliculated oocytes were injected with 50 nl of water (control) or G21 cRNA (50 ng), and kept at 17° C. in horse serum medium (in mM, 82.5 NaCl, 2.5 KCl, 1 MgCl2, 2.3 CaCl2, 5 HEPES, 5% horse serum, pH 7.5). Electrophysiological recordings were conducted 3-7 days after cRNA injection in buffer (in mM, 90 NaCl, 1 KCl, 1 MgCl2, 1.8 CaCl2, 5 TRIS, 5 MES) as described previously (Jansen and Akabas, 2006). Oocyte holding potential was −80 mV for Km determination. For current-voltage (I-V) relationships, from a −60 mV holding potential step changes in membrane potential were applied for 2 s in 10 mV increments between −100 and 30 mV in the absence and presence of substrate.
# [7] = biological target: T2, G21 (PCFT); test: Inhibition of [3H]folic acid uptake in HepG2 cells stably transfected with G21 cDNA; type: cell-based; settings: 100 μM inhibitor, pH 6.5, HepG2 cells
# Method: Transfection. Transfection of plasmid DNA was performed in HepG2, HeLa, and Caco2 cells with Lipofectamine 2000 (Invitrogen). HepG2 cells, stably transfected with either pcDNA3.1(+) or pcDNA3.1(+)G21, were generated by G418 selection (600 μg/ml). Double selection with puromycin (5 μg/ml) and hygromycin (50 μg/ml) was adopted to obtain stably transfected Caco-2 cells with both G21-silencing shRNA vectors, or with both non-silencing negative control plasmids.
# Transport of folates in HepG2, HeLa and Caco2 cells. Initial uptake of tritiated folates in HepG2, HeLa, or Caco2 cells was assessed using a protocol designed for rapid uptake determinations in cells growing in monolayer culture in liquid scintillation vials (Sharif and Goldman, 2000) except that cells were incubated at pH 7.4 and 37° C. for 20 min before initiation of uptake. Substrate uptake was normalized to protein content.
# [8] = biological target: T4, HCP1 murine ortholog (Mus musculus, UniProt Q6PEM8, A402V); settings: HeLa cells, read-out: Km for [55Fe]hemin uptake; cited from earlier work
# T4 construct: host or cells: HeLa cells infected with a cDNA-containing adenovirus vector
# T4 sequence (Q6PEM8 1-459 A402V): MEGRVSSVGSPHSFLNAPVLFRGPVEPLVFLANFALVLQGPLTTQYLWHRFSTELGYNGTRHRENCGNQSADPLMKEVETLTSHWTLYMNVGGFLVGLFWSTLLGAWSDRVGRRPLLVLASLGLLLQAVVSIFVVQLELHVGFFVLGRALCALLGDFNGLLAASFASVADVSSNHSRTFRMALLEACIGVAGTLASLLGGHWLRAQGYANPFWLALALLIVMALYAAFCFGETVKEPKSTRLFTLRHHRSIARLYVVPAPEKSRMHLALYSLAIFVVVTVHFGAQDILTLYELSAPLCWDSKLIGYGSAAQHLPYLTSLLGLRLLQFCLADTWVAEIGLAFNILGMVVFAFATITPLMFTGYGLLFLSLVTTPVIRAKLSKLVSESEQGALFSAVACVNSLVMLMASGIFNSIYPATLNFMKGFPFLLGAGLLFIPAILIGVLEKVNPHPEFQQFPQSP
# [9] = substrate: Nc1nc2ncc(CNc3ccc(C(=O)N[C@@H](CCC(=O)O)C(=O)O)cc3)nc2c(=O)[nH]1; test: Two-electrode voltage-clamp electrophysiology in G21 cRNA-injected Xenopus oocytes; type: cell-based, human; settings: 17.0 °C
# Method: as §2
# [10] = substrate: Nc1nc2ncc(CNc3ccc(C(=O)N[C@@H](CCC(=O)O)C(=O)O)cc3)nc2c(=O)[nH]1; test: Uptake of tritiated folates in G21 cRNA-injected Xenopus oocytes; type: cell-based, human
# Method: as §1
# [11] = substrate: CN(Cc1cnc2nc(N)nc(N)c2n1)c1ccc(C(=O)N[C@@H](CCC(=O)O)C(=O)O)cc1; test: cells, lysate or membranes
# [12] = pH 5.5, intestinal and other human cells
# [13] = other: extracellular pH 5.5, pH 5.5
# [14] = other: extracellular pH 6.0, pH 6.0
# [15] = other: extracellular pH 6.5, pH 6.5
# [16] = other: extracellular pH 7.0, pH 7.0
# [17] = other: extracellular pH 7.5, pH 7.5
molecule,measurement,setting,value
Nc1nc(N)c2nc(CNc3ccc(C(=O)N[C@@H](CCCNC(=O)c4ccccc4C(=O)O)C(=O)O)cc3)cnc2n1 [PT523],Ki,[1]; HeLa and other cells,> 50 µM
same,Ki,[1]; [12],> 50 µM
same,inhibitory effect on uptake of 2 μM [3H]folic acid,[2],did not inhibit
same,Ki,[3],~0.7 µM
Nc1nc2ncc(CNc3ccc(C(=O)N[C@@H](CCC(=O)O)C(=O)O)cc3)nc2c(=O)[nH]1 [folic acid],decrease in Vmax,[4]; over the pH range of 5.5 to 6.5,2.4 fold
same,uptake Vmax,"[4]; pH 5.5, same batch of oocytes",13 pmol/oocyte/hr
same,uptake Vmax,"[4]; pH 7.5, same batch of oocytes",5 pmol/oocyte/hr
same,increase in Km,[4]; pH increased from 5.5 to 7.0,2.6 fold
same,increase in Km,[4]; pH increased from 7.0 to 7.5,18 fold
same,Ki,[1]; [12],~0.6 µM
same,Km,[5]; pH 5.5,0.6 µM
same,Km,[5]; pH 7.4,12.3 µM
same,current amplitude larger than (6S)5-MTHF-induced current,"[6]; saturating concentrations, same oocyte, pH 5.5",39±6%
same,inhibition at 100 µM,"[2]; read-out: inhibition of 2 μM [3H]folic acid uptake, 100 μM inhibitor, pH 6.5, Xenopus oocytes",92 ± 2%
same,Ki,[3],~200 µM
same,inhibition at 100 µM,[7]; read-out: inhibition of 2 μM [3H]folic acid uptake,90 ± 0.02%
hemin,substrate-induced current,"[6]; 100 μM hemin, with 0.1% bovine serum albumin or 200 μM arginine",no current could be detected; also recorded: unable to detect
same,inhibitory effect on uptake of 2 μM [3H]folic acid,[2],weak inhibitor
same,inhibition of 2 μM [3H]folic acid uptake,"[2]; 100 μM inhibitor, pH 6.5, Xenopus oocytes",42±7%
same,Km,[8],125 µM
same,inhibition of 2 μM [3H]folic acid uptake,[7],30±5%
"G21 (PCFT) (Homo sapiens) (protein, expressed in transfected cells; host or cells: Xenopus laevis oocytes injected with capped G21 cRNA (pSPT64, SP6)) MEGSASPPEKPRARPAAAVLCRGPVEPLVFLANFALVLQGPLTTQYLWHRFSADLGYNGTRQRGGCSNRSADPTMQEVETLTSHWTLYMNVGGFLVGLFSSTLLGAWSDSVGRRPLLVLASLGLLLQALVSVFVVQLQLHVGYFVLGRILCALLGDFGGLLAASFASVADVSSSRSRTFRMALLEASIGVAGMLASLLGGHWLRAQGYANPFWLALALLIAMTLYAAFCFGETLKEPKSTRLFTFRHHRSIVQLYVAPAPEKSRKHLALYSLAIFVVITVHFGAQDILTLYELSTPLCWDSKLIGYGSAAQHLPYLTSLLALKLLQYCLADAWVAEIGLAFNILGMVVFAFATITPLMFTGYGLLFLSLVITPVIRAKLSKLVRETEQGALFSAVACVNSLAMLTASGIFNSLYPATLNFMKGFPFLLGAGLLLIPAVLIGMLEKADPHLEFQQFPQSP",Km,"[9]; other: pH 5.5, holding potential −80 mV, pH 5.5",0.83 ± 0.05 µM
same,Km,"[9]; other: pH 6.5, holding potential −80 mV, pH 6.5",2.99 ± 0.09 µM
same,Km,[10]; [13],1.3 ± 0.1 µM
same,Km,[10]; [14],1.5 ± 0.1 (n = 2) μM
same,Km,[10]; [15],2.7 ± 0.2 (n = 3) μM
same,Km,[10]; [16],6.0 ± 2.6 (n = 2) μM
same,Km,[10]; [17],56.2 ± 5.6 µM
same,Km,[11]; [13],3.4 ± 0.8 (n = 3) μM
same,Km,[11]; [14],3.4 ± 0.5 (n = 3) μM
same,Km,[11]; [15],7.3 ± 0.6 (n = 3) μM
same,Km,[11]; [16],16.3 ± 2.8 (n = 4) μM
same,Km,[11]; [17],130.7 ± 11.6 (n = 3) μM
same,Km,"[11]; other: pH 5.5, holding potential −80 mV, pH 5.5, 17.0 °C",2.01 ± 0.16 µM
same,Km,"[11]; other: pH 6.5, holding potential −80 mV, pH 6.5, 17.0 °C",8.07 ± 0.60 µM

# Reference: patent publication US7888025B2, “Intestinal folate transporter method” (Albert Einstein College of Medicine of Yeshiva University, priority 2007, dated 2011)
